Earlier results, collected in patent US20100284985A1, “Composition” (Danisco A/S, priority 2007, published 2010).

Tested on: common food spoilage yeasts and moulds
Details: most strains of common food spoilage yeasts and moulds; cited from earlier work

In the case of `C[C@@H]1C/C=C/C=C/C=C/C=C/[C@H](O[C@@H]2O[C@H](C)[C@@H](O)[C@H](N)[C@@H]2O)C[C@@H]2O[C@](O)(C[C@@H](O)C[C@H]3O[C@@H]3/C=C/C(=O)O1)C[C@H](O)[C@H]2C(=O)O` [natamycin], the “concentrations inhibiting most strains” value is listed as 1-15 ppm.
